Where “and” joins values, the source holds several entries; their conditions need not be identical. Equal entries are not always repeated. Where two headings read alike, the source gives them in different places.
Columns and labels:
mouse RXFP1 = biological target: T1, mouse RXFP1 (Mus musculus, UniProt Q6R6I7); assay: HTRF cAMP counter-screen in HEK293T cells expressing mouse RXFP1; assay type: cell-based; settings: for % Eff (cAMP): mouse RXFP1, experiments (1)-(3)
T1 construct: FLAG (N); expressed in transfected cells
T1 sequence (Q6R6I7 1-758): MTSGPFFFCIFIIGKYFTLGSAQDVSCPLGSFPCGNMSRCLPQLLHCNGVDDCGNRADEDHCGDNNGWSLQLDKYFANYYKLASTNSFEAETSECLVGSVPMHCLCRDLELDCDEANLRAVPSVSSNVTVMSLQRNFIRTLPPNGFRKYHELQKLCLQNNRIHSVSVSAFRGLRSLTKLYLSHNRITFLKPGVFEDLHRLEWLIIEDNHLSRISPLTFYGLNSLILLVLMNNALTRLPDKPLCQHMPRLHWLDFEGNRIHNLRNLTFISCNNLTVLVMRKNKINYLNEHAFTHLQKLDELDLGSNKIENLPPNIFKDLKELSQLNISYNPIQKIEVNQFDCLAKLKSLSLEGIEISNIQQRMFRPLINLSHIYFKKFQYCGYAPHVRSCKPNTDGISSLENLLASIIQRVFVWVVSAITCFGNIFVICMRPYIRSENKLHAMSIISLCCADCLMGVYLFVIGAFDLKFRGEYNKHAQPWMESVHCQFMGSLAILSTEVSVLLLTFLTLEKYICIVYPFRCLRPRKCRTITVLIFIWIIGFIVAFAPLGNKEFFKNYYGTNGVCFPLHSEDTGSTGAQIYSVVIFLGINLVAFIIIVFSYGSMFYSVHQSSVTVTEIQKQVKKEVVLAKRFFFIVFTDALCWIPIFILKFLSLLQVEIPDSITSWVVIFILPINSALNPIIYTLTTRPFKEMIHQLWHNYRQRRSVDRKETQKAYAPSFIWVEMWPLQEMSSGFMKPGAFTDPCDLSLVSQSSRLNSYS
Protocol: The HTRF Gs dynamic cAMP assay kit (CisBio, Bedford, MA) was used to measure intracellular cAMP accumulation in HEK293T cells (ATCC, Manassas, VA)[56]. […] The cell stock was verified mycoplasma free and authenticated by ATCC. Transient transfection was accomplished by treating cells in a 6-well plate with a mixture of 2 μg plasmid and 6 μL Lipofectamine 2000 (Invitrogen, Waltham, MA) per manufacturer’s protocol and incubating overnight. For cAMP measurement in 96-well format, HEK293T cells stably transfected with human RXFP2 (HEK-RXFP2), human RXFP1 (HEK-RXFP1), mouse Rxfp1 (HEK-Rxfp1) or transiently transfected with human RXFP1-RXFP2 chimeric receptors were seeded between 7500 and 30,000 cells per well, depending on cell line responsiveness, in serum-free DMEM medium and incubated overnight at 37 °C, 5% CO2. After 18 h, cells were treated with a titration of compound, 2 μM forskolin, or DMSO vehicle. Control wells were also treated with a titration of INSL3 (Phoenix Pharmaceuticals, Burlingame, CA) or human recombinant relaxin 2 (Peprotech, Cranbury, NJ). For the RXFP2 antagonist experiment, cells were co-treated with 0.28 μM compound or 30 nM INSL3 and a titration of the INSL3 B dimer antagonist[38],[39]. For the INSL3 allosteric modulation experiment, cells were co-treated with 0.025, 0.0025, or 0.00025 μM of compound and a titration of INSL3. Cells were incubated for 1 h at 37 °C, 5% CO2, and then kit cAMP-d2 and anti-cAMP antibody were added per manufacturer protocol. Plates were incubated for 1 h at room temperature and the signal was read on a CLARIOstar plate reader (BMG Labtech, Ortenberg, Germany) at 665 and 620 nm emission wavelengths. […]
receptors. HTRF cAMP counter-screen of RXFP2 agonists in HEK293T cells expressing a human RXFP1 and b mouse RXFP1. Relaxin 2 was used as positive control for RXFP1 receptor activation. Results are expressed as mean ± SEM of 3

[1] = Pharmacokinetic study, single 30 mg/kg IP dose, plasma, liver and bone; assay type: in vivo, mouse; parameters: levels in plasma, liver, and bone: scale not given here; settings: for Bone concentration / Liver concentration / Plasma concentration / concentration at 2 h / concentration at 12 h / concentration at 0.083 h / concentration at 0.25 h / concentration at 1 h: IP
Protocol: The concentration of compound in plasma, liver, and long bones was detected using liquid chromatography tandem mass spectrometry (LC-MS/MS). Samples were collected after a single intraperitoneal (IP) administration at 30 mg/kg, a single intravenous (IV) administration at 3 mg/kg, a single oral (PO) administration at 10 mg/kg, and a daily PO administration for 3 consecutive days at 10 mg/kg. The compound was formulated in 75% PEG300 + 25% of 40% aq. HPBCD for IV and PO administration and in 60% Phosal + 40% PEG300 for IP administration. All tissue samples were homogenized in water at a tissue weight to water volume ratio 1:3.
single dose IP administration. a Plasma, b liver and c bone profiles in female mice.
The actual concentration (ng/g) is the detected value (ng/mL) multiplied by 4. Drug
vehicle is 60% Phosal : 40% PEG300. 3 mice were used per time point. Results are
expressed as the mean ± SEM.

[2] = Time 0.083 h, individual values (1)-(3)
[3] = Time 0.25 h, individual values (1)-(3)
[4] = Time 0.5 h, individual values (1)-(3)
[5] = Time 1 h, individual values (1)-(3)
[6] = Time 2 h, individual values (1)-(3)
[7] = Time 4 h, individual values (1)-(3)
[8] = Time 8 h, individual values (1)-(3)
[9] = Time 12 h, individual values (1)-(3)
[10] = single 30 mg/kg IP, female mice

For `O=C1Nc2ccc(-c3cc(C(F)(F)F)cc(C(F)(F)F)c3)cc2C(=O)N2CCN(C(=O)COc3ccc(OC(F)(F)F)cc3I)C[C@@H]12` [compound 6641], the “activation of mouse RXFP1 receptor” value (mouse RXFP1; HTRF cAMP) was “do not activate”, the “% Eff (cAMP)” value (mouse RXFP1; Log [M] -4.60) was -2.207% and -2.077% and -4.472% and the “% Eff (cAMP)” value (mouse RXFP1; Log [M] -5.60) was -1.251% and -0.3652% and -2.403%. For the same compound, the “% Eff (cAMP)” value (mouse RXFP1; Log [M] -6.60) was -1.454% and 0.6194% and -2.041%, the “% Eff (cAMP)” value (mouse RXFP1; Log [M] -7.60) was -0.3802% and -0.7758% and -2.5668% and the Bone concentration [1, 2] was 307 ng/g and 205 ng/g and 624 ng/g. The Liver concentration [1, 2] was 1132 ng/g and 1016 ng/g, the Plasma concentration [1, 2] was 42.7 ng/mL and 44.4 ng/mL and the Bone concentration [1, 3] was 618 ng/g and 42.7 ng/g and 69 ng/g. The Liver concentration [1, 3] was 1852 ng/g and 1212 ng/g, the Plasma concentration [1, 3] was 135 ng/mL and 133 ng/mL and the Bone concentration [1, 4] was 79.8 ng/g and 96 ng/g and 167 ng/g. The Liver concentration [1, 4] was 2324 ng/g and 2784 ng/g, the Plasma concentration [1, 4] was 259 ng/mL and 440 ng/mL and the Bone concentration [1, 5] was 204 ng/g and 273 ng/g and 532 ng/g. The Liver concentration [1, 5] was 4720 ng/g and 3880 ng/g, the Plasma concentration [1, 5] was 507 ng/mL and 673 ng/mL and the Bone concentration [1, 6] was 346 ng/g and 472 ng/g. For the same compound, the Liver concentration [1, 6] was 10000 ng/g and 4520 ng/g and 5600 ng/g, the Plasma concentration [1, 6] was 819 ng/mL and 1140 ng/mL and the Bone concentration [1, 7] was 708 ng/g and 1566 ng/g and 1740 ng/g. The Liver concentration [1, 7] was 15760 ng/g and 16960 ng/g, the Plasma concentration [1, 7] was 2340 ng/mL and 4780 ng/mL and 5300 ng/mL and the Bone concentration [1, 8] was 3162 ng/g and 948 ng/g and 3258 ng/g. The Liver concentration [1, 8] was 19080 ng/g and 9320 ng/g and 24920 ng/g, the Plasma concentration [1, 8] was 3040 ng/mL and 3010 ng/mL and the Bone concentration [1, 9] was 1716 ng/g and 1458 ng/g. The Liver concentration [1, 9] was 18480 ng/g and 15600 ng/g, the Plasma concentration [1, 9] was 3930 ng/mL and 2630 ng/mL and the concentration at 2 h ([1]; female, C57BL/6 J, mouse, bone, ip, 30 mg/kg, Time 2 h, individual values (1)-(3), read-out: Bone concentration) was 492 ng/g. For the same compound, the concentration at 12 h ([1]; female, C57BL/6J, mouse, bone, ip, 30 mg/kg, Time 12 h, individual values (1)-(3), read-out: Bone concentration) was 2830 ng/g, the concentration at 0.083 h ([1]; female, C57BL/6J, mouse, liver, ip, 30 mg/kg, Time 0.083 h, individual values (1)-(3), read-out: Liver concentration) was 1060 ng/g and the concentration at 0.25 h ([1]; female, C57BL/6J, mouse, liver, ip, 30 mg/kg, Time 0.25 h, individual values (1)-(3), read-out: Liver concentration) was 1800 ng/g. The concentration at 1 h ([1]; female, C57BL/6J, mouse, liver, ip, 30 mg/kg, Time 1 h, individual values (1)-(3), read-out: Liver concentration) was 4920 ng/g, the concentration at 12 h ([1]; female, C57BL/6J, mouse, liver, ip, 30 mg/kg, Time 12 h, individual values (1)-(3), read-out: Liver concentration) was 13600 ng/g and the concentration at 0.5 h ([1]; female, C57BL/6J, mouse, liver, ip, 30 mg/kg, Time 0.5 h, individual values (1)-(3)) was 3040 ng/g. The concentration at 4 h ([1]; female, C57BL/6J, mouse, liver, ip, 30 mg/kg, Time 4 h, individual values (1)-(3)) was 11000 ng/g, the concentration at 0.083 h ([1]; female, C57BL/6J, mouse, plasma, ip, 30 mg/kg, Time 0.083 h, individual values (1)-(3), read-out: Plasma concentration) was 60.9 ng/mL and the concentration at 0.25 h ([1]; female, C57BL/6J, mouse, plasma, ip, 30 mg/kg, Time 0.25 h, individual values (1)-(3), read-out: Plasma concentration) was 132 ng/mL. The concentration at 1 h ([1]; female, C57BL/6J, mouse, plasma, ip, 30 mg/kg, Time 1 h, individual values (1)-(3), read-out: Plasma concentration) was 627 ng/mL, the concentration at 2 h ([1]; female, C57BL/6J, mouse, plasma, ip, 30 mg/kg, Time 2 h, individual values (1)-(3), read-out: Plasma concentration) was 1160 ng/mL and the concentration at 12 h ([1]; female, C57BL/6J, mouse, plasma, ip, 30 mg/kg, Time 12 h, individual values (1)-(3), read-out: Plasma concentration) was 2750 ng/mL. The concentration at 8 h ([1]; female, C57BL/6J, mouse, plasma, ip, 30 mg/kg, Time 8 h, individual values (1)-(3)) was 2190 ng/mL, the “duration of stable levels in plasma, liver, and bone” value [1, 10] was “at least 12 h” and the “levels in plasma, liver, and bone” value [1, 10] was “single/double digit”.

— PMC9636434, “Discovery of small molecule agonists of the Relaxin Family Peptide Receptor 2” (Communications Biology, 2022)
